Data on 23 molecules can be found in patent publication US10829458B2 (Araxes Pharma LLC, priority 2015, dated 2020).

The target of the assay is T1, KRAS G12C 1-169, his-tagged protein, GDP-loaded (Homo sapiens, UniProt P01116, G12C).
T1 construct: KRAS G12C 1-169, his-tagged protein, GDP-loaded
Briefly: Biochemical assay: covalent modification of KRAS G12C measured by mass spectrometry (RapidFire/TOF or Q-Exactive). Conditions: covalent binding to KRAS G12C; compounds of structure (I). Put shortly: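 GDP-loaded his-tagged KRAS G12C 1-169 at 2 μM in 20 mM Hepes, 150 mM NaCl, 1 mM MgCl2 incubated at room temperature with compound (10, 30 or 100 μM final, 2% DMSO) for 30 min, 2 h or 24 h, then quenched with formic acid. Intact-protein LC-MS (RapidFire/TOF or Q-Exactive) with deconvolution quantified modified versus unmodified protein.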

As to `C=CC(=O)N1CCN(c2nc(N3CC(N4CCC4)C3)nc3c(F)c(-c4c(O)cccc4F)c(Cl)cc23)CC1` [Example I-162, 1-(4-(2-([1,3′-biazetidin]-1′-yl)-6-chloro-8-fluoro-7-(2-fluoro-6-hydroxyphenyl)quinazolin-4-yl)piperazin-1-yl) prop-2-en-1-one], the Binding % entry is given as “+ (+ indicates binding activity up to 50%)”.

Consider `C=CC(=O)N1CCN(c2nc(OCC3OCCO3)nc3c(F)c(-c4c(O)cccc4F)c(Cl)cc23)CC1` [Example I-163, 1-(4-(2-((1,3-dioxolan-2-yl)methoxy)-6-chloro-8-fluoro-7-(2-fluoro-6-hydroxyphenyl)quinazolin-4-yl)piperazin-1-yl) prop-2-en-1-one], for which the Binding % entry is “+++ (+++ indicates binding activity greater than 90%)”.

As to `C=CC(=O)N1CCN(c2nc(OCC3OCCO3)nc3c(F)c(-c4c(C)ccc5[nH]ncc45)c(Cl)cc23)CC1` [Example I-164, 1-(4-(2-((1,3-dioxolan-2-yl)methoxy)-6-chloro-8-fluoro-7-(5-methyl-1H-indazol-4-yl)quinazolin-4-yl)piperazin-1-yl) prop-2-en-1-one], the Binding % result is “++ (++ indicates binding activity from 50 to 90%)”. Turning to `C=CC(=O)N1CCN(c2nc(NC3CCN(CC#N)CC3)nc3c(F)c(-c4c(C)ccc5[nH]ncc45)c(Cl)cc23)CC1` [Example I-165, 2-(4-((4-(4-acryloyl-piperazin-1-yl)-6-chloro-8-fluoro-7-(5-methyl-1H-indazol-4-yl)quinazolin-2-yl)amino)piperidin-1-yl) acetonitrile], the Binding % entry is listed as “++ (++ indicates binding activity from 50 to 90%)”. For the molecule `C=CC(=O)N1CCN(c2nc(N3CC(N4CCN(C5CC5)CC4)C3)nc3c(F)c(-c4c(O)cccc4F)c(Cl)cc23)CC1` [Example I-166, 1-(4-(6-chloro-2-(3-(4-cyclopropyl-piperazin-1-yl)azetidin-1-yl)-8-fluoro-7-(2-fluoro-6-hydroxyphenyl)quinazolin-4-yl)piperazin-1-yl) prop-2-en-1-one], the Binding % result is reported as “++ (++ indicates binding activity from 50 to 90%)”. In the case of `C=CC(=O)N1CCN(c2nc(NC3CCN(CC(F)F)CC3)nc3c(F)c(-c4c(C)ccc5[nH]ncc45)c(Cl)cc23)CC1` [Example I-167, 1-(4-(6-chloro-2-((1-(2,2-difluoroethyl)piperidin-4-yl)amino)-8-fluoro-7-(5-methyl-1H-indazol-4-yl)quinazolin-4-yl)piperazin-1-yl) prop-2-en-1-one] it was “++ (++ indicates binding activity from 50 to 90%)”; in that of `C=CC(=O)N1CCN(c2nc(OCCN3CCN(C4CC4)CC3)nc3c(F)c(-c4c(O)cccc4F)c(Cl)cc23)CC1` [Example I-168, 1-(4-(6-chloro-2-(2-(4-cyclopropyl-piperazin-1-yl)ethoxy)-8-fluoro-7-(2-fluoro-6-hydroxyphenyl)quinazolin-4-yl)piperazin-1-yl) prop-2-en-1-one], “+++ (+++ indicates binding activity greater than 90%)”; in that of `C=CC(=O)N1CCN(c2nc(NCCc3ncccn3)nc3c(F)c(-c4c(C)ccc5[nH]ncc45)c(Cl)cc23)CC1` [Example I-169, 1-(4-(6-chloro-8-fluoro-7-(5-methyl-1H-indazol-4-yl)-2-((2-(pyrimidin-2-yl)ethyl)amino)quinazolin-4-yl)piperazin-1-yl) prop-2-en-1-one], “++ (++ indicates binding activity from 50 to 90%)”. Take `C=CC(=O)N1CCN(c2nc(OCC3CN(c4ncccn4)C3)nc3c(F)c(-c4c(C)ccc5[nH]ncc45)c(Cl)cc23)CC1` [Example I-170, 1-(4-(6-chloro-8-fluoro-7-(5-methyl-1H-indazol-4-yl)-2-((1-(pyrimidin-2-yl)azetidin-3-yl)methoxy)quinazolin-4-yl)piperazin-1-yl) prop-2-en-1-one]: the Binding % entry was “++ (++ indicates binding activity from 50 to 90%)”. On to `C=CC(=O)N1CCN(c2nc(NCCc3ncccn3)nc3c(F)c(-c4c(O)cccc4F)c(Cl)cc23)CC1` [Example I-171, 1-(4-(6-chloro-8-fluoro-7-(2-fluoro-6-hydroxyphenyl)-2-((2-(pyrimidin-2-yl)ethyl)amino)quinazolin-4-yl)piperazin-1-yl) prop-2-en-1-one], for which the Binding % result is “++ (++ indicates binding activity from 50 to 90%)”. In the case of `C=CC(=O)N1CCN(c2nc(OCC3CCN(C4CC4)CC3)nc3c(F)c(-c4c(O)cccc4F)c(Cl)cc23)CC1` [Example I-172, 1-(4-(6-chloro-2-((1-cyclopropyl-piperidin-4-yl)methoxy)-8-fluoro-7-(2-fluoro-6-hydroxyphenyl)quinazolin-4-yl)piperazin-1-yl) prop-2-en-1-one] it was “+++ (+++ indicates binding activity greater than 90%)”. In the case of `C=CC(=O)N1CCN(c2nc(NC3CN(C(C)C)C3)nc3c(F)c(-c4c(C)ccc5[nH]ncc45)c(Cl)cc23)CC1` [Example I-173, 1-(4-(6-chloro-8-fluoro-2-((1-isopropyl-azetidin-3-yl)amino)-7-(5-methyl-1H-indazol-4-yl)quinazolin-4-yl)piperazin-1-yl) prop-2-en-1-one] it was “+ (+ indicates binding activity up to 50%)”; in that of `C=CC(=O)N1CCN(c2nc(NC3CN(C(C)C)C3)nc3c(F)c(-c4c(O)cccc4F)c(Cl)cc23)CC1` [Example I-174, 1-(4-(6-chloro-8-fluoro-7-(2-fluoro-6-hydroxyphenyl)-2-((1-isopropyl-azetidin-3-yl)amino)quinazolin-4-yl)piperazin-1-yl) prop-2-en-1-one], “+ (+ indicates binding activity up to 50%)”.

On to `C=CC(=O)N1CCN(c2nc(N)nc3c(F)c(-c4c(O)cccc4F)c(Cl)cc23)CC1` [Example I-175, 1-(4-(2-amino-6-chloro-8-fluoro-7-(2-fluoro-6-hydroxyphenyl)quinazolin-4-yl)piperazin-1-yl) prop-2-en-1-one], for which the Binding % entry is “++ (++ indicates binding activity from 50 to 90%)”.

`C=CC(=O)N1CCN(c2nc(N3CC(N4CCN(C5CC5)CC4)C3)nc3c(F)c(-c4c(C)ccc5[nH]ncc45)c(Cl)cc23)CC1` [Example I-176, 1-(4-(6-chloro-2-(3-(4-cyclopropyl-piperazin-1-yl)azetidin-1-yl)-8-fluoro-7-(5-methyl-1H-indazol-4-yl)quinazolin-4-yl)piperazin-1-yl) prop-2-en-1-one]: the Binding % entry is “++ (++ indicates binding activity from 50 to 90%)”.

As to `C=CC(=O)N1CCN(c2nc(NC3CCN(C(C)(C)C)CC3)nc3c(F)c(-c4c(C)ccc5[nH]ncc45)c(Cl)cc23)CC1` [Example I-177, 1-(4-(2-((1-(tert-butyl)piperidin-4-yl)amino)-6-chloro-8-fluoro-7-(5-methyl-1H-indazol-4-yl)quinazolin-4-yl)piperazin-1-yl) prop-2-en-1-one], the Binding % result is listed as “+++ (+++ indicates binding activity greater than 90%)”. In the case of `C=CC(=O)N1CCN(c2nc(OC3CN(C(C)C)C3)nc3c(F)c(-c4c(O)cccc4F)c(Cl)cc23)CC1` [Example I-178, 1-(4-(6-chloro-8-fluoro-7-(2-fluoro-6-hydroxyphenyl)-2-((1-isopropyl-azetidin-3-yl)oxy)quinazolin-4-yl)piperazin-1-yl)prop-2-en-1-one] it was “++ (++ indicates binding activity from 50 to 90%)”; in that of `C=CC(=O)N1CCN(c2nc(N3CC(N4CC(F)(F)C4)C3)nc3c(F)c(-c4c(O)cccc4F)c(Cl)cc23)CC1` [Example I-179, 1-(4-(6-chloro-2-(3,3-difluoro-[1,3′-biazetidin]-1′-yl)-8-fluoro-7-(2-fluoro-6-hydroxyphenyl)quinazolin-4-yl)piperazin-1-yl) prop-2-en-1-one], “+ (+ indicates binding activity up to 50%)”; in that of `C=CC(=O)N1CCN(c2nc(OCCC3CCN(C(C)C)CC3)nc3c(F)c(-c4c(O)cccc4F)c(Cl)cc23)CC1` [Example I-180, 1-(4-(6-chloro-8-fluoro-7-(2-fluoro-6-hydroxyphenyl)-2-(2-(1-isopropyl-piperidin-4-yl)ethoxy)quinazolin-4-yl)piperazin-1-yl) prop-2-en-1-one], “+++ (+++ indicates binding activity greater than 90%)”. Take `C=CC(=O)N1CCN(c2nc(NC(=O)c3ccnc(C)c3)nc3c(F)c(-c4c(O)cccc4F)c(Cl)cc23)CC1` [Example I-181, N-(4-(4-acryloyl-piperazin-1-yl)-6-chloro-8-fluoro-7-(2-fluoro-6-hydroxyphenyl)quinazolin-2-yl)-2-methyliso-nicotinamide]: the Binding % entry was “+ (+ indicates binding activity up to 50%)”.

For the molecule `C=CC(=O)N1CCN(c2nc(NC3CN(c4ncccn4)C3)nc3c(F)c(-c4c(O)cccc4F)c(Cl)cc23)CC1` [Example I-182, 1-(4-(6-chloro-8-fluoro-7-(2-fluoro-6-hydroxyphenyl)-2-((1-(pyrimidin-2-yl)azetidin-3-yl)amino)quinazolin-4-yl)piperazin-1-yl) prop-2-en-1-one], the Binding % result is listed as “+ (+ indicates binding activity up to 50%)”. In the case of `C=CC(=O)N1CCN(c2nc(OCCN(CC)CC)nc3c(F)c(-c4c(C)ccc5cn[nH]c45)c(Cl)cc23)CC1` [Example I-183, 1-(4-(6-chloro-2-(2-(diethyl-amino)ethoxy)-8-fluoro-7-(6-methyl-1H-indazol-7-yl)quinazolin-4-yl)piperazin-1-yl) prop-2-en-1-one] it was “+++ (+++ indicates binding activity greater than 90%)”; in that of `C=CC(=O)N1CCN(c2nc(NC3CCN(c4ncccn4)CC3)nc3c(F)c(-c4c(C)ccc5[nH]ncc45)c(Cl)cc23)CC1` [Example I-184, 1-(4-(6-chloro-8-fluoro-7-(5-methyl-1H-indazol-4-yl)-2-((1-(pyrimidin-2-yl)piperidin-4-yl)amino)quinazolin-4-yl)piperazin-1-yl) prop-2-en-1-one], “+ (+ indicates binding activity up to 50%)”.
